The source of these data is patent US5605928A, “Antiemetic compositions” (Yissum Research Development Company of The Hebrew …, priority 1992, dated 1997).

Data set [1] has as its system vomiting due to antineoplastic therapy. Kind of data set: Previous antiemetic treatment of patient 1 with Metoclopromide. Format: in vivo, human. Particulars: patient 1, 0.3 mg/kg p.o. or i.v.
Data set [2] deals with vomiting due to antineoplastic therapy in children with various blood cancers. Kind of data set: Antiemetic trial of delta-8-THC in 8 children receiving antineoplastic therapy (prevention of vomiting, side effects). Format: in vivo, human (children). As to the method:
In a trial, with 8 children of 3 to 13 years age, with various blood cancers, treated with a variety of antineoplastic drugs, 18 mg/m^2, in edible oil, p.o. of delta-8-THC was given two hours before the antineoplastic drug, and repeated every 6 hours of 24 hours. […] So far these children have received Δ^8 -THC nearly 500 times (see Table).
Eight children with various blood cancers were administered delta-8-THC at a dose of 18 mg/m^2 p.o. two hours before the start of the anticancer treatment. The drug was dissolved in corn or olive oil (6 mg/ml). The same dose was repeated every 6 hrs for 24 hrs. Whenever additional cycles of antineoplastic therapy were required, delta-8-THC was administered following the same time procedure described above. Children received delta-8-THC only during days when emetogenic drugs were administered.
Established anticancer drug protocols were followed with all patients.
(§1) A study on vomiting due to antineoplastic therapy was carried out with 8 patients. Chemotherapy protocols of the types indicated in the Table almost invariable cause intense vomiting, which starts about 2 hrs after the initiation of chemotherapy and gradually ends over a 24 hr period. In preliminary trials we tried to end the antiemetic therapy after the first or second dose of the cannabinoid, i.e. after 6 or 12 hrs. […] In one case (patient) delta-8-THC therapy initially was refused. The patient experienced debilitating vomiting for 24 hrs after the antineoplastic treatment. During the second treatment cycle (which took place after 8 days), at the patient's family request, delta-8-THC treatment was initiated.
Our antiemetic protocol for cancer patients, to which we strictly adhere, consists of one dose of delta-8-THC (18 mg/m^2) 2 hours before chemotherapy, followed by the same dose every 6 hours for a total of 4 doses per day.

The nature of data set [3]: Stability towards chemicals and oxidation, compared with delta-9-THC. The format is physicochemical. Particulars: compared with delta-9 isomer.
Data set [4] concerns vomiting due to antineoplastic therapy. Kind of data set: Preliminary trials ending the antiemetic therapy after first or second dose. The format is in vivo, human. Particulars: therapy ended after first or second dose, i.e. after 6 or 12 hrs. As to the method: as §1
Data set [5] is described as follows: Acute oral toxicity, single doses, observed for 7 days. Particulars: rat, in vivo; Fischer rats, male, single oral dose, observed 7 days; read-out: LD50, males. The format is in vivo.
In a further data set the test system is Fischer rats. Described as above. The format is in vivo. Particulars: extremely high oral doses, delta-8- vs delta-9-THC.
Data set [6] in a line: Acute oral toxicity, single doses. Particulars: in vivo, single oral dose, read-out: LD50 (could not be determined; single oral doses up to this dose non lethal). Format: in vivo. As to the method:
(§2) LD50 could not be determined in either rhesus monkeys or dogs as single oral doses of up to 9000 mg/kg of either delta-8- or delta-9-THC in dogs or monkeys were non lethal.

In another data set the test system is rhesus monkeys. Kind of data set: Acute oral toxicity, single doses. Particulars: single oral doses up to 9000 mg/kg. The format is in vivo. The method, then:
as §2

In another data set the test system is dogs. The data set can be described thus: Acute oral toxicity, single doses. Format: in vivo. Particulars: single oral doses up to 9000 mg/kg. The method, then:
as §2

Data set [7] relates to vomiting and nausea in cancer therapy. The data set can be described thus: Comparison of delta-8-THC with delta-9-THC for antiemetic use (effectiveness, side effects). Format: in vivo, human. Particulars: compared with delta-9-THC.
For data set [8], the system named is vomiting and nausea in chemotherapy patients. Particulars: cited from earlier work.
The mark [9] stands for this setting: chemotherapy of cancer, treated patients.

“Also recorded” adds a separate entry of the source. Where two headings read alike, the source gives them in different places.

`CCN(CC)CCNC(=O)c1cc(Cl)c(N)cc1OC` [Metoclopromide]: the Prevention of vomiting entry in [1] is “failed to”.

For orientation: LD50 means the dose at which mortality reaches 50%. As for `CCCCCc1cc(O)c2c(c1)OC(C)(C)[C@@H]1CC=C(C)C[C@@H]21` [delta-8-THC], in data set [2] (8 children, 18 mg/m^2 p.o. in edible oil 2 h before antineoplastic drug, repeated every 6 h for 24 h), the Prevention of vomiting entry is “completely prevented; also recorded: no emesis was noted; also recorded: prevention of vomiting was complete”. In addition, in data set [2] (Table, individual child, 18 mg/m^2), the “Effect of antiemetic treatments: side effects per patient” value is recorded as “no side effects; also recorded: slight irritability; also recorded: euphoria”. Further, the “Anxiety or hallucinogenic effects” value in data set [2] (children, 18 mg/m^2 p.o.) is “No anxiety or hallucinogenic effects were noted”. In data set [2] (children, 18 mg/m^2 p.o., every 6 h for 24 h), the “Side effects (overall)” value was “negligible side effects; also recorded: minor: some irritability as slight euphoria; also recorded: without the occurrence of major side effects”. In [2] (delta-8-THC initiated at second cycle after refusal in first cycle, 18 mg/m^2 p.o.), the “Vomiting in patient, second treatment cycle” value is listed as “No vomiting occurred”. For the same compound, the Proneness to oxidation result in [3] is given as “less prone to oxidation”. In [3], the “Stability towards various chemicals” value is “considerably more stable”. Besides, the “Vomiting after ending antiemetic therapy early” value in data set [4] is listed as “Vomiting started in most cases”. Besides, the LD50 at 168 h in data set [5] is 1980 mg/kg. Besides, the Histopathological changes result with Fischer rats is “essentially the same”. For the same compound, the LD50 was more than 9000 mg/kg in data set [6] (dog, dogs) and more than 9000 mg/kg in data set [6] (rhesus monkey, rhesus monkeys). Further, the Histopathological alterations entry in the data set with rhesus monkeys and with dogs was “did not occur” each time. For the same compound, the “Effectiveness for the intended (antiemetic) use” value in data set [7] was “at least as effective”. For the same compound, the Side-effects entry in data set [7] (especially in pediatric medicine) is “considerably reduced side-effects”.

As to `CCCCCc1cc(O)c2c(c1)OC(C)(C)[C@@H]1CCC(C)=C[C@@H]21` [delta-9-THC, delta-9-tetrahydro-cannabinol, reference compound], the LD50 at 168 h in data set [5] came out at 1910 mg/kg. Besides, the Histopathological changes result in the data set on Fischer rats is recorded as “essentially the same”. Also, the 50% lethal dose (LD50) in data set [6] (dog, dogs) was more than 9000 mg/kg; in [6] (rhesus monkey, rhesus monkeys), more than 9000 mg/kg. The Histopathological alterations result with rhesus monkeys and with dogs was “did not occur” each time. In addition, the “Effect in the remaining patients” value in data set [8] (chemotherapy of cancer, the rest of treated patients) was “little or no effect”. For the same compound, the “Patients in whom vomiting and nausea is prevented” value in [8] (setting [9]) is reported as 20 to 30 per cent. In addition, in [8] (setting [9]), the “Patients in whom vomiting and nausea symptoms are reduced” value is on record as 40 to 50 per cent. In data set [8] (treated patients, pronounced with elderly patients), the Pronounced side effects entry is “drowsiness, dizziness and in some cases--anxiety”. Also, in data set [8] (younger patients), the “Side effects in younger patients” value is “mainly mood changes”.
